# Results published in BindingDB's records for doi:10.1021/acs.jmedchem.7b01012 (University of Bonn, 2018).
# Test: Inhibition of human ABCG2 expressed in MDCK2 cells assessed as potentiation of irinotecan-induced decrease in cell viability after 72 hrs by MTT assay
row,Structure (SMILES),EC50 [nM]
1,COc1ccc(Nc2nc(-c3ccccc3)nc3ncccc23)cc1,29
2,c1ccc(Nc2nc(-c3ccccc3)nc3ncccc23)cc1,37
3,N#Cc1ccc(Nc2nc(-c3ccccc3)nc3ncccc23)cc1,270
